From patent publication US20220332695A1, “UREA DERIVATIVES AS CB1 ALLOSTERIC MODULATORS” (RTI INTERNATIONAL, priority 2019, published 2022)
Where two headings read alike, the source gives them in different places.

Tests used:
mouse CB1R = target: T1, mouse CB1R (Mus musculus, UniProt P47746); assay: [35S]GTPγS binding assay in mouse cerebellum membranes; type: biochemical; conditions: for IC50: mouse cerebellum membrane, read-out: mCB1R GTPγS IC50
T1 construct: membranes (10 μg protein) from either ICR mouse cerebellum mice; from tissue; host or cells: cerebellum membranes of ICR mice
Protocol: (§1) [^35S]GTPγS Binding Assay: For receptor signaling, membranes (10 μg protein) from either ICR mouse cerebellum mice (6-8 weeks old; Enviga
(§2) Non-specific binding was determined by adding 30 μM unlabeled GTPyS. Concentration response curves for allosteric modulators were conducted in the presence of CP55,940 (100 nM or 1 μM) to calculate 1050 values.
(§3) For [^35S]GTPyS experiments, data were normalized to maximal CP55,940 (100 nM) stimulation in the absence of test compound (i.e., vehicle=100%).
Select compounds were evaluated in the CP55,940-induced [^35S]GTPyS binding assays using mouse cerebellum membrane at two CP55,940 concentrations, 100 nM and 1μM.

hCB1R [1] = target: T2, hCB1R (Homo sapiens, UniProt P21554); assay: [35S]GTPγS binding assay in HEK cells stably expressing human CB1R; type: biochemical; set-up: expressed in transfected cells; host or cells: HEK (HEK293) cells, membranes; conditions: [CP] = 100 nM, mean (95% confidence interval), read-out: hCB1R [35S]GTPγS binding assay IC50
Protocol: as §1, §2, §3

hCB1R [2] = target: T2, hCB1R; assay: Calcium mobilization assay, antagonist mode against CP55,940; type: cell-based; set-up: expressed in transfected cells; host or cells: CHO-RD-HGA16 cells (parental line from Molecular Devices); conditions: CHO cells expressing human CB1R; against CP55,940 (100 nM); mean ± SEM; read-out: hCB1R Calcium assay IC50
Protocol: Calcium Mobilization Assay: CHO-RD-HGA16 cells (Molecular Devices, San Jose, Calif., United States of America) stably expressing the human CB1 receptor were plated into 96-well black-walled assay plates at 25,000 cells/well in 100 pL of Ham's F12 (supplemented with 10% fetal bovine serum, 100 units of penicillin/streptomycin, and 100 µg/mL Normocin) and incubated overnight at 37° C., 5% CO2. Calcium 5 dye (Molecular Devices, San Jose, Calif., United States of America) was reconstituted according to the manufacturer's instructions. The reconstituted dye was diluted 1:40 in prewarmed (37° C.) assay buffer (1x HBSS, 20 mM HEPES, 2.5 mM probenecid, pH 7.4 at 37° C.). Growth medium was removed, and the cells were gently washed with 100 pL of prewarmed (37° C.) assay buffer. The cells were incubated for 45 min at 37° C., 5% CO2 in 200 pL of the diluted Calcium 5 dye solution. […] Serial dilutions of the test compounds were prepared at 10x the desired final concentration in 2.25% BSA/4.5% DMSO/4.5% EtOH/assay buffer. After the dye loading incubation period, the cells were pretreated with 25 pL of the test compound serial dilutions and incubated for 15 min at 37° C. After the pretreatment incubation period, the plate was read with a FLIPR Tetra (Molecular Devices, San Jose, Calif., United States of America). Calcium-mediated changes in fluorescence were monitored every 1 s over a 90 s time period, with the Tetra adding 25 pL of the CP55,940 EC80 concentration at the 10s time point (excitation/emission: 485/525 nm). Relative fluorescence units (RFU) were plotted against the log of compound concentrations. For agonist screens, the above procedure was followed except that cells were pretreated with 2.25% BSA/4.5% DMSO/4.5% EtOH/assay buffer and the Tetra added single concentration dilutions of the test compounds prepared at 10x the desired final concentration in 0.25% BSA/0.5% DMSO/0.5% EtOH/assay buffer. Test compound RFUs were compared to the CP55,940 Emax RFUs to generate % Emax values.
Data Analysis: For calcium mobilization experiments, data were fit to a three-parameter logistic curve to generate IC50 values (GraphPad Prism 6.0, Graphpad Software, San Diego, Calif., United States of America).

hCB1R [3] = target: T2, hCB1R; assay: Real-time BRET CAMYEL cAMP assay in HEK293 cells expressing human CB1; type: cell-based; set-up: expressed in transfected cells; host or cells: HEK293 cells stably transfected with human CB1, transiently transfected with pcDNA3L-His-CAMYEL sensor; conditions: for IC50: [CP] = 100 nM, forskolin-stimulated cAMP
Protocol: cAMP Assay: The cAMP assay was performed as previously described. […] Briefly, forskolin (FSK)-stimulated cyclic adenosine monophosphate (cAMP) production was measured in real-time using a transfected bioluminescence resonance energy transfer (BRET) cAMP sensor. The plasmid encodes a cAMP binding domain (Epac1) flanked by yellow fluorescent protein (YFP) and Renilla Luciferase (RLuc) assay, the latter of which can oxidize coelenterazine H and produce a photon as a byproduct. When cAMP is bound to the Epac1 domain, it separates RLuc and YFP so only Rluc emits a photon at a wavelength of 460 nm. When cAMP is not bound, RLuc can excite YFP, emitting light at wavelength 535 nm. A plate reader measures both wavelengths and their ratio, 460/535, is calculated to quantify cAMP levels where increases in the ratio indicate increases in cAMP. Human Embryonic Kidney 293 (HEK293) cells stably transfected with the human cannabinoid type-1 (C131) were maintained at 37° C. at 5% CO2 and seeded in 100 mM dishes for transfection. The next day, cells were given fresh growth media and transfected with 5 pg of pcDNA3L-His-CAMYEL using linear polyethyleneimine (25 kDa, Polysciences, Warrington, Pennsylvania, United States of America) in 1:6 DNA:PEI (ATCC, Manassas, Virginia, United States of America) ratio. The next day, cells were lifted using 1 mM EDTA in PBS and spun down at 200xg for 5 min. The supernatant was removed, and cells were resuspended in growth media and plated on poly-D-lysine (Sigma Aldrich, St. Louis, Missouri, United States of America) coated white 96 well plates at 60,000 cells per well, filling 2 columns of 8 wells each per plate, i.e. 8 samples in duplicate per plate (Perkin Elmer, Waltham, Massachusetts,
United States of America). The following day, media was removed, cells were rinsed with PBS and buffers/reagents/drugs added as following: At 0 min, 175 of stimulation buffer (5 mg/ml bovine serum albumin in HBSS including Ca^2+ and Mg^2+); at 10 min, 25 μL of allosteric modulators added; at 15 min: 25 μL coelenterazine added (5 μM final); at 25 min, 25 μL of forskolin (10 final) with or without CP55,940 (100 nM final) added. […] Ratio of 460/535 is calculated for each time point and plotted across time and area under the curve analysis is conducted for each replicate and averaged by condition/day where each day serves as an independent experiment. Data were calculated as %FSK using the formula [(sample-basal)/(forskolin-basal)×100]. IC50 values were calculated from these normalized concentration-response data using Prism 6 (Graphpad Software, San Diego, Calif., United States of America) using 3 parameter non-linear regression. Data are plotted as mean of at least N=3 independent experiments either normalized to forskolin (concentration response data) or the calculated 460/535 BRET ratio (time course data).

T2 sequence (P21554 whole entry): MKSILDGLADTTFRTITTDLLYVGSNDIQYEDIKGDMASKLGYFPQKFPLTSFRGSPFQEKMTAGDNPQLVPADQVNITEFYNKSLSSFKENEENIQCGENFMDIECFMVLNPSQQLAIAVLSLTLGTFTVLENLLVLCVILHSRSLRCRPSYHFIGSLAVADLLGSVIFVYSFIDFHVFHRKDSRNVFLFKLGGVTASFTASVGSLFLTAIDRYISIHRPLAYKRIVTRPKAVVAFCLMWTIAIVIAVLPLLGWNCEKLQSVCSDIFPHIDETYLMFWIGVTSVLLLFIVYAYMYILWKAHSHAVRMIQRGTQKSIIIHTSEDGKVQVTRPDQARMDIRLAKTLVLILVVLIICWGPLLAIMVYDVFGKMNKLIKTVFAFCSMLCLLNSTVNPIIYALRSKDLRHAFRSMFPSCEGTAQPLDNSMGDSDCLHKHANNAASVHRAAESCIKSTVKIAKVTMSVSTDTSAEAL
T1 sequence (P47746 whole entry): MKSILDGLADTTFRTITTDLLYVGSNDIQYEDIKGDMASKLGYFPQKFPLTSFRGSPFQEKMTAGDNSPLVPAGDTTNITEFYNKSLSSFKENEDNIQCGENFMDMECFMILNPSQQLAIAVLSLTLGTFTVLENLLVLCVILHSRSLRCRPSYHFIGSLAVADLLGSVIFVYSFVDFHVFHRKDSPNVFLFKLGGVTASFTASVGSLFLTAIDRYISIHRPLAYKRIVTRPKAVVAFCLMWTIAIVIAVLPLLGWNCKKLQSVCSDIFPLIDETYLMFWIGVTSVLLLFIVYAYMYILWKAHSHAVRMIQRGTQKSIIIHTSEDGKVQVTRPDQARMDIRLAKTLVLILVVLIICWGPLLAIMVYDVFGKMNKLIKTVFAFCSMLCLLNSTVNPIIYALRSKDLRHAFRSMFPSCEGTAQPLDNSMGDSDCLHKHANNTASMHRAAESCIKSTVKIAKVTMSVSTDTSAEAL

`O=C(Nc1ccc(Cl)cc1)Nc1cc(-c2ccccc2)cs1` [Compound 12, 1-(4-Chlorophenyl)-3-(4-phenylthiophen-2-yl)urea] was tested, and the “activity in [35S]GTPγS binding assay against mouse CB1R (in words)” value (mouse CB1R; compared with compound 2) was “weaker potency”, the IC50 (hCB1R [1]) was 667 nM and the IC50 (hCB1R [2]) was 37 ± 2 nM.
`O=C(Nc1ccc(Cl)cc1)Nc1ccc(-c2ccc(F)cc2)s1` [Compound 18, 1-(4-Chlorophenyl)-3-[5-(4-fluorophenyl)thiophen-2-yl]urea] was tested, and the IC50 (mouse CB1R; [CP] = 100 nM) was 174 nM, the IC50 (mouse CB1R; [CP] = 1 uM) was 145 nM and the IC50 (hCB1R [1]) was 537 nM. The IC50 (hCB1R [2]) was 40 ± 2 nM.
`O=C(Nc1ccc(Cl)cc1)Nc1ccc(-c2ccccc2Cl)s1` [Compound 21, 1-(4-Chlorophenyl)-3-[5-(2-chlorophenyl)thiophen-2-yl]urea] showed an IC50 (mouse CB1R; [CP] = 100 nM) of 363 nM, an IC50 (mouse CB1R; [CP] = 1 uM) of 204 nM and an IC50 (hCB1R [1]) of 272 nM. The IC50 (hCB1R [2]) was 21 ± 2 nM, the IC50 (hCB1R [3]) was 1.19 µM and the “inverse agonism in cAMP assay” value (hCB1R [3]; concentrations up to 10 μM) was “displayed inverse agonism”.
With `O=C(Nc1ccc(Cl)cc1)Nc1ccc(-c2cc(Cl)cc(Cl)c2)s1` [Compound 25, 1-(4-Chlorophenyl)-3-[5-(3,5-dichlorophenyl)thiophen-2-yl]urea] the IC50 (mouse CB1R; [CP] = 100 nM) was 3310 nM, the IC50 (mouse CB1R; [CP] = 1 uM) was 2400 nM and the IC50 (hCB1R [1]) was 6330 nM. The IC50 (hCB1R [2]) was 92 ± 12 nM and the IC50 (hCB1R [3]) was greater than 10 µM.
`CC(=O)c1cccc(-c2ccc(NC(=O)Nc3ccc(Cl)cc3)s2)c1` [Compound 26, 3-[5-(3-Acetylphenyl)thiophen-2-yl]-1-(4-chlorophenyl)urea] was tested, and the IC50 (hCB1R [1]) was 3430 nM and the IC50 (hCB1R [2]) was 108 ± 17 nM.
Compound `COC(=O)c1cccc(-c2ccc(NC(=O)Nc3ccc(Cl)cc3)s2)c1` [Compound 27, Methyl 3-(5-{[(4-chlorophenyl)carbamoyl]amino}thiophen-2-yl)benzoate] has an IC50 (hCB1R [1]) of 2350 nM and an IC50 (hCB1R [2]) of 345 ± 48 nM.
`CS(=O)(=O)c1cccc(-c2ccc(NC(=O)Nc3ccc(Cl)cc3)s2)c1` [Compound 28, 1-(4-Chlorophenyl)-3-[5-(3-methanesulfonylphenyl)thiophen-2-yl]urea] gave an IC50 (hCB1R [1]) of 3230 nM and an IC50 (hCB1R [2]) of 501 ± 58 nM.
Compound `COc1ccccc1-c1ccc(NC(=O)Nc2ccc(Cl)cc2)s1` [Compound 29, 1-(4-Chlorophenyl)-3-[5-(2-methoxyphenyl)thiophen-2-yl]urea] has an IC50 (hCB1R [1]) of 2020 nM and an IC50 (hCB1R [2]) of 58 nM.
`COc1cccc(-c2ccc(NC(=O)Nc3ccc(Cl)cc3)s2)c1` [Compound 30, 1-(4-Chlorophenyl)-3-[5-(3-methoxyphenyl)thiophen-2-yl]urea] gave an IC50 (mouse CB1R; [CP] = 100 nM) of 3020 nM, an IC50 (mouse CB1R; [CP] = 1 uM) of 1620 nM and an IC50 (hCB1R [1]) of 3280 nM. The IC50 (hCB1R [2]) was 61 nM and the IC50 (hCB1R [3]) was 6.35 µM.
With `COc1ccc(-c2ccc(NC(=O)Nc3ccc(Cl)cc3)s2)cc1` [Compound 31, 1-(4-Chlorophenyl)-3-[5-(4-methoxyphenyl)thiophen-2-yl]urea] the IC50 (mouse CB1R; [CP] = 100 nM) was 110 nM, the IC50 (mouse CB1R; [CP] = 1 uM) was 120 nM and the IC50 (hCB1R [1]) was 449 nM. The IC50 (hCB1R [2]) was 31 ± 2 nM and the IC50 (hCB1R [3]) was 1.85 µM.
Compound `Cc1cccc(-c2ccc(NC(=O)Nc3ccc(Cl)cc3)s2)c1` [Compound 32, 1-(4-Chlorophenyl)-3-[5-(3-methylphenyl)thiophen-2-yl]urea] has an IC50 (hCB1R [1]) of 1180 nM and an IC50 (hCB1R [2]) of 48 ± 8 nM.
For `CN(C)c1cccc(-c2ccc(NC(=O)Nc3ccc(Cl)cc3)s2)c1` [Compound 33, 1-(4-Chlorophenyl)-3-{5-[3-(dimethylamino)phenyl]thiophen-2-yl}urea], the IC50 (mouse CB1R; [CP] = 100 nM) was 3470 nM, the IC50 (mouse CB1R; [CP] = 1 uM) was 3310 nM and the IC50 (hCB1R [1]) was 5020 nM. It also gave an IC50 (hCB1R [2]) of 89 ± 14 nM and an IC50 (hCB1R [3]) greater than 10 µM.
With `O=C(Nc1ccc(Cl)cc1)Nc1ccc(-c2cccnc2)s1` [Compound 34, 1-(4-Chlorophenyl)-3-[5-(pyridin-3-yl)thiophen-2-yl]urea] the IC50 (hCB1R [1]) was 298 nM and the IC50 (hCB1R [2]) was 107 ± 6 nM.
